Results as given in patent US6635639B2, “Use of N-alkylamino-heterocylic compounds for the treatment of migraine” (NPS Allelix Corp., priority 1998, dated 2003).

Assays:
5-HT1D receptor = biological target: T1, 5-HT1D receptor (Homo sapiens, UniProt P28221); assay: Binding affinity, 3H-serotonin displacement from membranes of cells expressing 5-HT1D; details: binding of radioligand inhibited in the presence of 100 nM of test compound; 3H-serotonin 1 nM; read-out: percent inhibition at the 5-HT1D receptor
T1 construct: expressed in transfected cells
T1 sequence (P28221 whole entry): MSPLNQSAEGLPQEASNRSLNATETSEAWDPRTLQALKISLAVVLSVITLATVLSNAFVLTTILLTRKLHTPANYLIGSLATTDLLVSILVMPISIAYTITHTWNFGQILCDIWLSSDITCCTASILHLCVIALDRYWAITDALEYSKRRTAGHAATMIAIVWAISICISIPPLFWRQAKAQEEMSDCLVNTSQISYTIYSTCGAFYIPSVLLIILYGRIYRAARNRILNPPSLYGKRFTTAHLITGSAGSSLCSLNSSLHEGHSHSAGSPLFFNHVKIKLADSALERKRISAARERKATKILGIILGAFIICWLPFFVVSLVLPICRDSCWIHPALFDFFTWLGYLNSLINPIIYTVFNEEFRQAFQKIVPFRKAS
Experimental: (§1) Selected compounds of the previous examples, as well as reference compounds, were evaluated for binding affinity using cell types receptive specifically to 5-HT1D and 5-HT1B ligands. The assay protocol generally entailed the incubation of membranes prepared from cells expressing the 5-HT1D or 5-HT1B subtype of 5-HT receptors with ^3H-serotonin (1 nM for 5-HT1D and 2.5 nM for 5-HT1B). Specific concentrations of the test compound were incubated with the radioligand and the membrane homogenates prepared from the recombinant cells. After a 60 minute incubation at 22° C., the incubation was terminated by vacuum filtration. The filters were washed with buffer and counted for radioactivity using liquid scintillation spectroscopy. The affinity of the test compound for the 5-HT1D receptor is expressed as the amount (in percent) of binding of the radioligand that is inhibited in the presence of 100 nM of test compound. A greater percent inhibition indicates greater affinity for the 5-HT1D receptor.

5-HT1B receptor = biological target: T2, 5-HT1B receptor (Homo sapiens, UniProt P28222); assay: Binding affinity, 3H-serotonin displacement from membranes of cells expressing 5-HT1B; details: 1 h; 3H-serotonin 2.5 nM; selectivity comparison; read-out: percent inhibition at the 5-HT1B receptor
T2 construct: expressed in transfected cells
T2 sequence (P28222 whole entry): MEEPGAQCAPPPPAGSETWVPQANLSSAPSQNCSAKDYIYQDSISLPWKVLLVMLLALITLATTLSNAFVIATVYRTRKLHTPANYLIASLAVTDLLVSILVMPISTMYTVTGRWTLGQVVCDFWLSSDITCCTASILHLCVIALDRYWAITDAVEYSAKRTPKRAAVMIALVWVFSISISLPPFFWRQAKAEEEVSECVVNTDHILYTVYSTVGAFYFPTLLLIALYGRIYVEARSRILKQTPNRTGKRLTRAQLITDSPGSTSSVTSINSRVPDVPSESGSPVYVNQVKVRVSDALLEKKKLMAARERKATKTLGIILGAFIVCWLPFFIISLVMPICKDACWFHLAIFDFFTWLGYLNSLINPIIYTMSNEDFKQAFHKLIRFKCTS
Experimental: as §1

Compound | inhibition at 0.1 µM (5-HT1D receptor) [%] | inhibition at 0.1 µM (5-HT1B receptor) [%]
CN(C)CCn1ccc2ccc(-c3cccs3)cc21 [Example 10t, 1-(2-(N,N-dimethylamino)ethyl)-6-(2-thienyl)-1H-indole] | > 75 | 
CN(C)CCn1ccc2ccc(C3(O)CCSCC3)cc21 [Example 3, 1-(2-(N,N-Dimethylamino)ethyl)-6-(4-hydroxy-tetrahydro-thiopyran-4-yl)-1H-indole] | > 75 | < 15
CN(C)CCn1ccc2ccc(-c3ccccn3)cc21 [Example 12b, 1-(2-(N,N-dimethylamino)ethyl)-6-(pyridin-2-yl)-1H-indole] | > 50 | 
CN(C)CCn1ccc2ccc(C3(O)CCOCC3)cc21 [Example 6, 6-(4-hydroxy-tetrahydropyran-4-yl)-1-(2-(N,N-dimethylamino)ethyl)-1H-indole] | > 90 | 
CCN(CC)CCn1ncc2ccc(C3CCOCC3)cc21 [Example 16, 1-(2-(N,N-diethylamino)ethyl)-6-(tetrahydropyran-4-yl)-1H-indazole] | > 75 | < 15
CN(C)CCn1ncc2ccc(-c3ccsc3)cc21 [Example 10b, 1-(2-(N,N-dimethylamino)ethyl)-6-(3-thienyl)-1H-indazole] | > 90 | 
CCN(CC)CCn1ncc2ccc(-c3ccoc3)cc21 [Example 10i, 1-(2-(N,N-diethylamino)ethyl)-6-(furan-3-yl)-1H-indazole] | > 75 | < 15
CCN(CC)CCn1ncc2ccc(C3CCSCC3)cc21 [Example 16d, 1-(2-(N,N-diethylamino)ethyl)-6-(tetrahydrothiopyran-4-yl)-1H-indazole] | > 75 | 
CCN(CC)CCn1ncc2ccc(-c3ccsc3)cc21 [Example 9b, 1-(2-(N,N-diethylamino)ethyl)-6-(3-thienyl)-1H-indazole] | > 75 | < 15
CCN(CC)CCn1ncc2ccc(-c3cccnc3)cc21 [Example 10h, 1-(2-(N,N-diethylamino)ethyl)-6-(3-pyridinyl)-1H-indazole] | > 75 | < 15
CN(C)CCn1ccc2ccc(-c3cccnc3)cc21 [Example 10w, 1-(2-(N,N-dimethylamino)ethyl)-6-(3-pyridinyl)-1H-indole] | > 90 | 
CCN(CC)CCn1ccc2ccc(C3CCSCC3)cc21 [Example 5e, 1-(2-(N,N-diethylamino)ethyl)-6-(tetrahydrothiopyran-4-yl)-1H-indole] | > 75 | < 15
CN(C)CCn1ncc2ccc(-c3cccs3)cc21 [Example 10, 1-(2-(N,N-dimethylamino)ethyl)-6-(2-thienyl)-1H-indazole] | > 75 | < 50
c1cc(-c2ccc3cnn(CCN4CCCC4)c3c2)cs1 [Example 9i, 1-(2-(N-pyrrolidinyl)ethyl)-6-(3-thienyl)-1H-indazole] | > 75 | < 15
c1cc(-c2ccc3cnn(CCNC4CC4)c3c2)cs1 [Example 9p, 1-(2-(N-cyclopropylamino)ethyl)-6-(3-thienyl)-1H-indazole] | > 75 | 
CCN(CC)CCn1ncc2ccc(-c3cc4ccccc4o3)cc21 [Example 10o, 1-(2-(N,N-diethylamino)ethyl)-6-(benzofuran-2-yl)-1H-indazole] | > 50 | 
CN(C)CCn1ncc2ccc(-c3ccncc3)cc21 [Example 12, 1-(2-(N,N-dimethylamino)ethyl)-6(4-pyridinyl)-1H-indazole] | > 75 | 
CCN(CC)CCn1ccc2ccc(-c3cccnc3)cc21 [Example 10dd, 1-(2-(N,N-diethylamino)ethyl)-6-(3-pyridinyl)-1H-indole] | > 75 | 
